Test results: patent publication US20070128217A1 (priority 2003, published 2007)

Legend:
[1] = system: rabbit serum obtained by immunizing a rabbit with the SARS-CoV strain Frankfurt 1; type: binding; parameters: Binding of a rabbit serum to linear peptides / Binding of a rabbit serum to looped peptides / Rabbit serum linear peptides / Rabbit serum looped peptides / Binding of a rabbit serum to linear peptides of protein N of SARS-CoV Urbani (Rabbit serum linear peptides) / Binding of a rabbit serum to looped/cyclic peptides of protein N of SARS-CoV Urbani (Rabbit serum looped peptides): unit not given here
[2] = system: antibodies in sera from SARS patients (sera 1a, 1b, 2, 6, 37, 62, London, SARS-yellow, SARS-green); type: binding, human; parameters: Binding of serum 6 to linear peptides of protein X1 of SARS-CoV Urbani / Binding of serum 37 to linear peptides of protein X1 of SARS-CoV Urbani / Binding of serum 6 to looped/cyclic peptide (PEPSCAN-ELISA) / Binding of serum 37 to looped/cyclic peptide (PEPSCAN-ELISA) / Binding of serum 37 to looped/cyclic peptides of protein X1 of SARS-CoV Urbani / Binding of serum 6 to linear peptides of protein X2 / Binding of serum 37 to linear peptides of protein X2 / Binding of serum 37 to looped/cyclic peptides of protein X2 of SARS-CoV Urbani / Binding of serum 6 to linear peptides of protein M of SARS-CoV Urbani / Binding of serum 37 to linear peptides of protein M of SARS-CoV Urbani / Binding of serum 6 to looped/cyclic peptides of protein M of SARS-CoV Urbani / Binding of serum 37 to looped/cyclic peptides of protein M of SARS-CoV Urbani / Binding of serum 6 to linear peptides of protein X3 of SARS-CoV Urbani / Binding of serum 37 to linear peptides of protein X3 of SARS-CoV Urbani / Binding of serum 37 to looped/cyclic peptides of protein X3 of SARS-CoV Urbani / Binding of serum 6 to linear peptides of protein X4 of SARS-CoV Urbani / Binding of serum 37 to linear peptides of protein X4 of SARS-CoV Urbani / Binding of serum 37 to looped/cyclic peptides of protein X4 of SARS-CoV Urbani / Binding of serum 6 to linear peptides of protein X5 of SARS-CoV Urbani / Binding of serum 37 to linear peptides of protein X5 of SARS-CoV Urbani / Binding of serum 37 to looped/cyclic peptides of protein X5 of SARS-CoV Urbani / Binding of serum 6 to linear peptides of protein N of SARS-CoV Urbani / Binding of serum 37 to linear peptides of protein N of SARS-CoV Urbani / Binding of serum 6 to linear peptide (PEPSCAN-ELISA) / Binding of serum 1a to looped/cyclic peptides of protein N of SARS-CoV Urbani / Binding of serum 1b to looped/cyclic peptides of protein N of SARS-CoV Urbani / Binding of serum 2 to looped/cyclic peptides of protein N of SARS-CoV Urbani / Binding of serum 6 to looped/cyclic peptides of protein N of SARS-CoV Urbani / Binding of serum 37 to looped/cyclic peptides of protein N of SARS-CoV Urbani / Binding of serum 62 to looped/cyclic peptides of protein N of SARS-CoV Urbani / Binding of serum London to looped/cyclic peptides of protein N of SARS-CoV Urbani / Binding of serum SARS-green to looped/cyclic peptides of protein N of SARS-CoV Urbani: unit not given here
[3] = system: control sera (pooled serum of ten healthy LUMC hospital workers; commercial negative donor pooled serum from the Dutch bloodbank); type: binding, human; parameters: Binding of Control serum LUMC to linear peptides / Binding of Control serum Blood-bank to linear peptides / Binding of Control serum LUMC to looped peptides / Binding of Control Serum Blood-Bank to Looped peptides / Binding of Control serum LUMC to linear peptides of the protein M of SARS-CoV Urbani / Binding of Control serum Blood-bank to linear peptides of the protein M of SARS-CoV Urbani / Binding of Control serum LUMC to looped peptides of the protein M of SARS-CoV Urbani / Binding of Control Serum Blood-Bank to Looped peptides of the protein M of SARS-CoV Urbani: unit not given here

Sequence: TFRIAIWNLDVIISS
- Rabbit serum linear peptides [1]: 0.3
- Rabbit serum looped peptides [1]: 0.4
- Binding of serum 1a to linear peptides of protein X3 of SARS-CoV Urbani [2]: 0.8
- Binding of serum 1a to looped/cyclic peptides of protein X3 of SARS-CoV Urbani [2]: 0.7
- Binding of serum 1b to linear peptides of protein X3 of SARS-CoV Urbani [2]: 0.5
- Binding of serum 1b to looped/cyclic peptides of protein X3 of SARS-CoV Urbani [2]: 0.5
- Binding of serum 2 to linear peptides of protein X3 of SARS-CoV Urbani [2]: 0.6
- Binding of serum 2 to looped/cyclic peptides of protein X3 of SARS-CoV Urbani [2]: 0.6
- Binding of serum 6 to linear peptides of protein X3 of SARS-CoV Urbani [2]: 0.5
- Binding of serum 6 to looped/cyclic peptides of protein X3 of SARS-CoV Urbani [2]: 0.3
- Binding of serum 37 to linear peptides of protein X3 of SARS-CoV Urbani [2]: 0.6
- Binding of serum 37 to looped/cyclic peptides of protein X3 of SARS-CoV Urbani [2]: 0.6
- Binding of serum 62 to linear peptides of protein X3 of SARS-CoV Urbani [2]: 0.7
- Binding of serum 62 to looped/cyclic peptides of protein X3 of SARS-CoV Urbani [2]: 0.7
- Binding of serum London to linear peptides of protein X3 of SARS-CoV Urbani [2]: 0.7
- Binding of serum London to looped/cyclic peptides of protein X3 of SARS-CoV Urbani [2]: 0.2
- Binding of serum SARS-green to linear peptides of protein X3 of SARS-CoV Urbani [2]: 0.4
- Binding of serum SARS-green to looped/cyclic peptides of protein X3 of SARS-CoV Urbani [2]: 0.2
- Binding of serum SARS-yellow to linear peptides of protein X3 of SARS-CoV Urbani [2]: 0.6
- Binding of serum SARS-yellow to looped/cyclic peptides of protein X3 of SARS-CoV Urbani [2]: 0.5
- Binding of Control Serum Blood-Bank to Looped peptides of the protein X3 of SARS-CoV Urbani [3]: 0.8
- Binding of Control serum Blood-bank to linear peptides of the protein X3 of SARS-CoV Urbani [3]: 0.8
- Binding of Control serum LUMC to linear peptides of the protein X3 of SARS-CoV Urbani [3]: 0.7
- Binding of Control serum LUMC to looped peptides of the protein X3 of SARS-CoV Urbani [3]: 0.6

Sequence: KFTTSLSLHKLLQTL
- Binding of a rabbit serum to linear peptides [1]: 0.2
- Binding of a rabbit serum to looped peptides [1]: 0.4
- Binding of serum 1a to linear peptides of protein X2 [2]: 0.5
- Binding of serum 1a to looped/cyclic peptides of protein X2 of SARS-CoV Urbani [2]: 0.5
- Binding of serum 1b to linear peptides of protein X2 [2]: 0.4
- Binding of serum 1b to looped/cyclic peptides of protein X2 of SARS-CoV Urbani [2]: 0.4
- Binding of serum 2 to linear peptides of protein X2 [2]: 0.4
- Binding of serum 2 to looped/cyclic peptides of protein X2 of SARS-CoV Urbani [2]: 0.5
- Binding of serum 6 to linear peptides of protein X2 [2]: 0.6
- Binding of serum 6 to looped/cyclic peptides of protein X2 of SARS-CoV Urbani [2]: 0.4
- Binding of serum 37 to linear peptides of protein X2 [2]: 0.5
- Binding of serum 37 to looped/cyclic peptides of protein X2 of SARS-CoV Urbani [2]: 0.5
- Binding of serum 62 to linear peptides of protein X2 [2]: 0.6
- Binding of serum 62 to looped/cyclic peptides of protein X2 of SARS-CoV Urbani [2]: 0.5
- Binding of serum London to linear peptides of protein X2 [2]: 0.5
- Binding of serum London to looped/cyclic peptides of protein X2 of SARS-CoV Urbani [2]: 0.6
- Binding of serum SARS-green to linear peptides of protein X2 [2]: 0.4
- Binding of serum SARS-green to looped/cyclic peptides of protein X2 of SARS-CoV Urbani [2]: 0.4
- Binding of serum SARS-yellow to linear peptides of protein X2 [2]: 0.5
- Binding of serum SARS-yellow to looped/cyclic peptides of protein X2 of SARS-CoV Urbani [2]: 0.3
- Binding of Control Serum Blood-Bank to Looped peptides [3]: 0.5
- Binding of Control serum Blood-bank to linear peptides [3]: 0.6
- Binding of Control serum LUMC to linear peptides [3]: 0.4
- Binding of Control serum LUMC to looped peptides [3]: 0.5

Sequence: FARTRSMWSFNPETN
- Rabbit serum linear peptides [1]: 0.4
- Rabbit serum looped peptides [1]: 0.3
- Binding of serum 1a to linear peptides of protein M of SARS-CoV Urbani [2]: 0.8
- Binding of serum 1a to looped/cyclic peptides of protein M of SARS-CoV Urbani [2]: 0.9
- Binding of serum 1b to linear peptides of protein M of SARS-CoV Urbani [2]: 0.7
- Binding of serum 1b to looped/cyclic peptides of protein M of SARS-CoV Urbani [2]: 0.6
- Binding of serum 2 to linear peptides of protein M of SARS-CoV Urbani [2]: 0.7
- Binding of serum 2 to looped/cyclic peptides of protein M of SARS-CoV Urbani [2]: 0.6
- Binding of serum 6 to linear peptides of protein M of SARS-CoV Urbani [2]: 0.4
- Binding of serum 6 to looped/cyclic peptides of protein M of SARS-CoV Urbani [2]: 0.7
- Binding of serum 37 to linear peptides of protein M of SARS-CoV Urbani [2]: 0.9
- Binding of serum 37 to looped/cyclic peptides of protein M of SARS-CoV Urbani [2]: 0.9
- Binding of serum 62 to linear peptides of protein M of SARS-CoV Urbani [2]: 0.8
- Binding of serum 62 to looped/cyclic peptides of protein M of SARS-CoV Urbani [2]: 0.8
- Binding of serum London to linear peptides of protein M of SARS-CoV Urbani [2]: 0.4
- Binding of serum London to looped/cyclic peptides of protein M of SARS-CoV Urbani [2]: 0.3
- Binding of serum SARS-green to linear peptides of protein M of SARS-CoV Urbani [2]: 0.3
- Binding of serum SARS-green to looped/cyclic peptides of protein M of SARS-CoV Urbani [2]: 0.0
- Binding of serum SARS-yellow to linear peptides of protein M of SARS-CoV Urbani [2]: 0.1
- Binding of serum SARS-yellow to looped/cyclic peptides of protein M of SARS-CoV Urbani [2]: 0.5
- Binding of Control Serum Blood-Bank to Looped peptides of the protein M of SARS-CoV Urbani [3]: 0.8
- Binding of Control serum Blood-bank to linear peptides of the protein M of SARS-CoV Urbani [3]: 0.9
- Binding of Control serum LUMC to linear peptides of the protein M of SARS-CoV Urbani [3]: 0.5
- Binding of Control serum LUMC to looped peptides of the protein M of SARS-CoV Urbani [3]: 0.6
